From patent publication US20050197350A1, “Novel quinoline, tetrahydroquinazoline, and pyrimidine derivatives and methods of treatment related to the use thereof” (TAISHO PHARMACEUTICAL CO., LTD., priority 2003, published 2005)

Tested on: MCH receptors
Assay: MCH receptor activity class (method not given)
Conditions: class by percent of control at 10^-7 M or IC50

Row | Compound | class
1 | Cc1cc2occ(CN[C@H]3CC[C@@H](Nc4nccc(N(C)C)n4)CC3)c(=O)c2cc1Cl [compound 1228] | 3 (Class 3 The value of percent of control at 10^−7 M was more than 60% or the value of IC50 was more than 200 nM.)
2 | Cc1cc(C)c2occ(CN[C@H]3CC[C@@H](Nc4nccc(N(C)C)n4)CC3)c(=O)c2c1 [compound 1229] | 3 (Class 3 The value of percent of control at 10^−7 M was more than 60% or the value of IC50 was more than 200 nM.)
3 | Cc1cc(CN[C@H]2CC[C@@H](Nc3nccc(N(C)C)n3)CC2)c(C)n1-c1ccccc1 [compound 1230] | 3 (Class 3 The value of percent of control at 10^−7 M was more than 60% or the value of IC50 was more than 200 nM.)
4 | CCCCC/C(=C\c1ccccc1)CN[C@H]1CC[C@@H](Nc2nccc(N(C)C)n2)CC1 [compound 1232] | 3 (Class 3 The value of percent of control at 10^−7 M was more than 60% or the value of IC50 was more than 200 nM.)
5 | COc1ccccc1/C=C/CN[C@H]1CC[C@@H](Nc2nccc(N(C)C)n2)CC1 [compound 1233] | 3 (Class 3 The value of percent of control at 10^−7 M was more than 60% or the value of IC50 was more than 200 nM.)
6 | CN(C)c1ccnc(N[C@H]2CC[C@@H](NCc3coc4ccc(Cl)cc4c3=O)CC2)n1 [compound 1234] | 3 (Class 3 The value of percent of control at 10^−7 M was more than 60% or the value of IC50 was more than 200 nM.)
7 | CN(C)c1ccnc(N[C@H]2CC[C@@H](NCc3cncc(-c4ccc(F)cc4)c3)CC2)n1 [compound 1235] | 2 (Class 2: The value of percent of control at 10^−7 M was from 40% to 60% or the value of IC′50 was from 50 nM to 200 nM.)
8 | CCOC(=O)c1[nH]c2cc(Cl)cc(Cl)c2c1CN[C@H]1CC[C@@H](Nc2nccc(N(C)C)n2)CC1 [compound 1236] | 1 (Class 1: The value of percent of control at 10^−7 M was less than 40% or the value of IC50 was less than 50 nM.)
9 | COC(=O)c1ccccc1Sc1nc2sccn2c1CN[C@H]1CC[C@@H](Nc2nccc(N(C)C)n2)CC1 [compound 1237] | 3 (Class 3 The value of percent of control at 10^−7 M was more than 60% or the value of IC50 was more than 200 nM.)
10 | CN(C)c1ccnc(N[C@H]2CC[C@@H](NCc3c[nH]nc3-c3ccc(F)cc3)CC2)n1 [compound 1238] | 3 (Class 3 The value of percent of control at 10^−7 M was more than 60% or the value of IC50 was more than 200 nM.)
11 | CSc1ccc(CN[C@H]2CC[C@@H](Nc3nccc(N(C)C)n3)CC2)cc1 [compound 1239] | 3 (Class 3 The value of percent of control at 10^−7 M was more than 60% or the value of IC50 was more than 200 nM.)
12 | CN(C)c1ccnc(N[C@H]2CC[C@@H](NCc3cccc4ccccc34)CC2)n1 [compound 1240] | 3 (Class 3 The value of percent of control at 10^−7 M was more than 60% or the value of IC50 was more than 200 nM.)
13 | COc1cc(CN[C@H]2CC[C@@H](Nc3nccc(N(C)C)n3)CC2)ccc1O [compound 1241] | 3 (Class 3 The value of percent of control at 10^−7 M was more than 60% or the value of IC50 was more than 200 nM.)
14 | CN(C)c1ccnc(N[C@H]2CC[C@@H](NCc3ccc(F)c(Cl)c3)CC2)n1 [compound 1242] | 3 (Class 3 The value of percent of control at 10^−7 M was more than 60% or the value of IC50 was more than 200 nM.)
15 | COc1cccc(OC)c1CNC[C@H]1CC[C@@H](Nc2nccc(N(C)C)n2)CC1 [compound 1243] | 2 (Class 2: The value of percent of control at 10^−7 M was from 40% to 60% or the value of IC′50 was from 50 nM to 200 nM.)
16 | CCOc1ccccc1CNC[C@H]1CC[C@@H](Nc2nccc(N(C)C)n2)CC1 [compound 1244] | 2 (Class 2: The value of percent of control at 10^−7 M was from 40% to 60% or the value of IC′50 was from 50 nM to 200 nM.)
17 | CN(C)c1ccnc(N[C@H]2CC[C@@H](CNCc3c[nH]c4ccccc34)CC2)n1 [compound 1245] | 3 (Class 3 The value of percent of control at 10^−7 M was more than 60% or the value of IC50 was more than 200 nM.)
18 | COc1ccc(OC)c(CNC[C@H]2CC[C@@H](Nc3nccc(N(C)C)n3)CC2)c1 [compound 1246] | 3 (Class 3 The value of percent of control at 10^−7 M was more than 60% or the value of IC50 was more than 200 nM.)
19 | COc1ccc(CNC[C@H]2CC[C@@H](Nc3nccc(N(C)C)n3)CC2)c2ccccc12 [compound 1247] | 1 (Class 1: The value of percent of control at 10^−7 M was less than 40% or the value of IC50 was less than 50 nM.)
20 | COc1ccc2[nH]cc(CNC[C@H]3CC[C@@H](Nc4nccc(N(C)C)n4)CC3)c2c1 [compound 1248] | 2 (Class 2: The value of percent of control at 10^−7 M was from 40% to 60% or the value of IC′50 was from 50 nM to 200 nM.)
21 | COc1ccc2ccccc2c1CNC[C@H]1CC[C@@H](Nc2nccc(N(C)C)n2)CC1 [compound 1249] | 1 (Class 1: The value of percent of control at 10^−7 M was less than 40% or the value of IC50 was less than 50 nM.)
22 | COc1cc(Br)cc(CNC[C@H]2CC[C@@H](Nc3nccc(N(C)C)n3)CC2)c1O [compound 1250] | 1 (Class 1: The value of percent of control at 10^−7 M was less than 40% or the value of IC50 was less than 50 nM.)
23 | CN(C)c1ccnc(N[C@H]2CC[C@@H](CNCc3c[nH]c4ccc(Br)cc34)CC2)n1 [compound 1251] | 1 (Class 1: The value of percent of control at 10^−7 M was less than 40% or the value of IC50 was less than 50 nM.)

Row | Compound | class
24 | COc1ccc(CNC[C@H]2CC[C@@H](Nc3nccc(N(C)C)n3)CC2)c(OC)c1 [compound 1252] | 2 (Class 2: The value of percent of control at 10^−7 M was from 40% to 60% or the value of IC′50 was from 50 nM to 200 nM.)
25 | COc1ccc(CNC[C@H]2CC[C@@H](Nc3nccc(N(C)C)n3)CC2)c(OC)c1OC [compound 1253] | 1 (Class 1: The value of percent of control at 10^−7 M was less than 40% or the value of IC50 was less than 50 nM.)
26 | CCOc1cc(CNC[C@H]2CC[C@@H](Nc3nccc(N(C)C)n3)CC2)ccc1OC [compound 1255] | 1 (Class 1: The value of percent of control at 10^−7 M was less than 40% or the value of IC50 was less than 50 nM.)
27 | CN(C)c1ccnc(N[C@H]2CC[C@@H](CNCc3c[nH]nc3-c3ccc(C(F)(F)F)cc3)CC2)n1 [compound 1256] | 1 (Class 1: The value of percent of control at 10^−7 M was less than 40% or the value of IC50 was less than 50 nM.)
28 | COc1cc(CNC[C@H]2CC[C@@H](Nc3nccc(N(C)C)n3)CC2)cc(OC)c1OC [compound 1257] | 2 (Class 2: The value of percent of control at 10^−7 M was from 40% to 60% or the value of IC′50 was from 50 nM to 200 nM.)
29 | COc1cc(CNC[C@H]2CC[C@@H](Nc3nccc(N(C)C)n3)CC2)cc(OC)c1 [compound 1259] | 3 (Class 3 The value of percent of control at 10^−7 M was more than 60% or the value of IC50 was more than 200 nM.)
30 | COc1cc(CNC[C@H]2CC[C@@H](Nc3nccc(N(C)C)n3)CC2)cc(I)c1O [compound 1260] | 1 (Class 1: The value of percent of control at 10^−7 M was less than 40% or the value of IC50 was less than 50 nM.)
31 | Cc1cc(CNC[C@H]2CC[C@@H](Nc3nccc(N(C)C)n3)CC2)cc(C)c1O [compound 1261] | 1 (Class 1: The value of percent of control at 10^−7 M was less than 40% or the value of IC50 was less than 50 nM.)
32 | COc1ccc(CNC[C@H]2CC[C@@H](Nc3nccc(N(C)C)n3)CC2)cc1 [compound 1262] | 3 (Class 3 The value of percent of control at 10^−7 M was more than 60% or the value of IC50 was more than 200 nM.)
33 | CN(C)c1ccnc(N[C@H]2CC[C@@H](CNCc3ccc4c(c3)OCCO4)CC2)n1 [compound 1263] | 3 (Class 3 The value of percent of control at 10^−7 M was more than 60% or the value of IC50 was more than 200 nM.)
34 | CN(C)c1ccnc(N[C@H]2CC[C@@H](CNCc3cccc(Br)c3)CC2)n1 [compound 1264] | 3 (Class 3 The value of percent of control at 10^−7 M was more than 60% or the value of IC50 was more than 200 nM.)
35 | COc1cc(OC)c(CNC[C@H]2CC[C@@H](Nc3nccc(N(C)C)n3)CC2)cc1Br [compound 1265] | 1 (Class 1: The value of percent of control at 10^−7 M was less than 40% or the value of IC50 was less than 50 nM.)
36 | COc1ccc(Br)cc1CNC[C@H]1CC[C@@H](Nc2nccc(N(C)C)n2)CC1 [compound 1266] | 1 (Class 1: The value of percent of control at 10^−7 M was less than 40% or the value of IC50 was less than 50 nM.)
37 | CN(C)c1ccnc(N[C@H]2CC[C@@H](CNCc3ccc(O)cc3Cl)CC2)n1 [compound 1267] | 3 (Class 3 The value of percent of control at 10^−7 M was more than 60% or the value of IC50 was more than 200 nM.)
38 | CN(C)c1ccnc(N[C@H]2CC[C@@H](CNCc3ccccc3C#N)CC2)n1 [compound 1268] | 3 (Class 3 The value of percent of control at 10^−7 M was more than 60% or the value of IC50 was more than 200 nM.)
39 | CN(C)c1ccnc(N[C@H]2CC[C@@H](CNCc3cccc(Cl)c3)CC2)n1 [compound 1269] | 3 (Class 3 The value of percent of control at 10^−7 M was more than 60% or the value of IC50 was more than 200 nM.)
40 | CN(C)c1ccnc(N[C@H]2CC[C@@H](CNCc3ccc(Cl)cc3)CC2)n1 [compound 1270] | 3 (Class 3 The value of percent of control at 10^−7 M was more than 60% or the value of IC50 was more than 200 nM.)
41 | CCN(CC)c1ccc(CNC[C@H]2CC[C@@H](Nc3nccc(N(C)C)n3)CC2)cc1 [compound 1271] | 2 (Class 2: The value of percent of control at 10^−7 M was from 40% to 60% or the value of IC′50 was from 50 nM to 200 nM.)
42 | CN(C)c1ccc(CNC[C@H]2CC[C@@H](Nc3nccc(N(C)C)n3)CC2)cc1 [compound 1272] | 3 (Class 3 The value of percent of control at 10^−7 M was more than 60% or the value of IC50 was more than 200 nM.)
43 | CCn1c2ccccc2c2cc(CNC[C@H]3CC[C@@H](Nc4nccc(N(C)C)n4)CC3)ccc21 [compound 1273] | 1 (Class 1: The value of percent of control at 10^−7 M was less than 40% or the value of IC50 was less than 50 nM.)
44 | CN(C)c1ccnc(N[C@H]2CC[C@@H](CNCc3cc(C(F)(F)F)ccc3F)CC2)n1 [compound 1274] | 3 (Class 3 The value of percent of control at 10^−7 M was more than 60% or the value of IC50 was more than 200 nM.)
45 | CN(C)c1ccnc(N[C@H]2CC[C@@H](CNCc3ccc(O)cc3)CC2)n1 [compound 1275] | 3 (Class 3 The value of percent of control at 10^−7 M was more than 60% or the value of IC50 was more than 200 nM.)
